Test results from article PMC10187112 (Journal of Enzyme Inhibition and Medicinal Chemistry, 2023).

Experiments:
mice [1] = experiment: Spontaneous locomotor activity; conditions: recorded 30 min, 30 min after injection
human 5-HT7 receptor = molecular target: T1, human 5-HT7 receptor (Homo sapiens, UniProt P34969); experiment: Competition radioligand binding, [3H]-SB269970, HEK293 membranes
T1 construct: expressed in transfected cells; host or cells: HEK293
Method: (§1) Competition radioligand binding assays were performed on membranes isolated from cell lines stable expressing the cloned human receptors, which were either in-house or commercially available. […] Assays (250 μL assay final volume) were carried out in 96-well polypropylene plates in duplicate. In short, suspension of appropriate membrane protein was incubated in assay buffer with addition of the corresponding radioligand, in the presence or absence of tested compound or reference compound. […] After the incubation, the content of the test plates was transferred to 96-well plates with glass fibre filter GF/B or GF/C, previously pre-treated with polyethyleneimine (PEI), and rapidly filtered with the use of vacuum, followed by rapid washing with cold (4 °C) wash buffer. After that the filter plates were dried at 60 °C for 1 h. Then, 30 μL of liquid scintillation cocktail (UniverSol-ES, MP Biomedicals, Solon, OH) was added to each well of the filter plates and the radioactivity was measured in a MicroBeta2 microplate scintillation counter (PerkinElmer, Madrid, Spain).
(§2) Competition binding curves were fitted to a one-site competition binding model (Fit Ki) with the use of Prism 7 software (GraphPad, San Diego, CA). logKi (log of the equilibrium dissociation constant (Ki)) values were obtained after constraining the concentration of radioligand employed in the assay and its dissociation constant (KD) as determined in saturation radioligand binding assays.

human D2S receptor = human D2S receptor (Homo sapiens, UniProt P14416); experiment: Functional assay of cAMP signalling (D2 antagonism), CHO-K1 cells
mice [2] = experiment: Passive avoidance (PA) test (memory); conditions: 10 mg/kg i.p., 60 min before test
mice [3] = experiment: Rota-rod test (motor coordination); format: in vivo; conditions: 10, 20, and 40 mg/kg i.p., 60 min after treatment, 3 min
Method: To fully assess the impact of selected compounds on animals’ motor coordination, both compounds (at the same doses as were used for spontaneous locomotor activity measurements) were tested also in the rota-rod test. The applied protocol has been already validated in our laboratory[12]^,[62]^,[63]. […] The time spent by each mouse on the rota-rod was measured for 3 min. The additional aim of the rota-rod test was to confirm the appropriate selection of doses for further behavioural examination. […] After such confirmation, the above-mentioned doses were chosen for the rest of behavioural tests.

[4] = molecular target: T2, human serotonin 5-HT2A receptor (Homo sapiens, UniProt P28223); experiment: Competition radioligand binding, [3H]-Ketanserin, CHO-K1 membranes
T2 construct: expressed in transfected cells; host or cells: CHO-K1
Method: (§3) Experiments were carried out in membranes from cell lines stably expressing the human cloned receptors.
as §1, §2

human 5-HT2A receptor = molecular target: T3, human 5-HT2A receptor (Homo sapiens, UniProt P28223); experiment: Functional assay of inositol phosphate production (5-HT2A antagonism), CHO-K1 cells; format: cell-based
T3 construct: expressed in transfected cells; host or cells: CHO-K1
Method: The activity of selected compounds at 5-HT2A receptors was investigated in cell-based functional assays of IP production in the CHO-K1 cell line stably expressing the cloned human 5-HT2A receptor also employed for the radioligand binding assays. Twenty-four hours before the experiment, cells in culture were seeded in complete growth medium prepared with dialysed foetal bovine serum, in half-area, white, 96-well tissue culture plates (Corning®, Fisher Scientific SL, Madrid, Spain). At the day of assay, plates were washed with assay buffer (kit stimulation buffer) and incubated with test compounds for 10 min at 37 °C. Test compounds were added to the assay plates from 7× working dilution intermediate plates that were prepared by means of acoustic noncontact dispensing of the compounds, keeping vehicle concentration (0.1% DMSO) constant in the assay. […] After this time, cellular IP levels were quantified by using the HTRF-based inositol monophosphate kit IP-One Gq kit (Cisbio, Bioassays, Codolet, France) following the manufacturer’s protocol. […] Basal IP levels were determined in control wells in the absence of compound and agonist. […] Kb value of the compounds was estimated as described above for functional assays of cAMP signalling at D2 receptors.

mice [5] = experiment: Amphetamine-induced hyperactivity; conditions: 10 mg/kg i.p., 30 min before amphetamine 5 mg/kg s.c., p < 0.0001
[6] = molecular target: T4, human muscarinic M1 receptor (Homo sapiens, UniProt P11229); experiment: Competition radioligand binding, [3H]-pirenzepine, CHO-K1 membranes; conditions: read-out: % inh. at 10 μM M1
T4 construct: expressed in transfected cells; host or cells: CHO-K1
T4 sequence (P11229 1-460): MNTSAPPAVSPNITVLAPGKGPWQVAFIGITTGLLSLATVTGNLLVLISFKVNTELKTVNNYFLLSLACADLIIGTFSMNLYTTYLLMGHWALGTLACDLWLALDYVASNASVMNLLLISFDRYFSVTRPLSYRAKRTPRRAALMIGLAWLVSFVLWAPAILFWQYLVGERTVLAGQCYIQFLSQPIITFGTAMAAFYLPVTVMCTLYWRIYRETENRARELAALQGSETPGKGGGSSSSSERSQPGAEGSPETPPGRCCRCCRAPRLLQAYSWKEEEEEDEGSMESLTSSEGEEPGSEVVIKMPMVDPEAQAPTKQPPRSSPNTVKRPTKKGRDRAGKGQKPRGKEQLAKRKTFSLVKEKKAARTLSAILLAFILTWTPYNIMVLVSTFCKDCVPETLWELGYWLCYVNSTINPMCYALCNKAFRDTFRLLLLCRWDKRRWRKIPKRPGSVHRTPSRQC
Method: as §1, §2

mice [7] = experiment: Elevated plus maze (EPM) test (anxiety); conditions: 10 mg/kg i.p., 60 min before test
[8] = molecular target: T5, human histamine H1 receptor (Homo sapiens, UniProt P35367); experiment: Competition radioligand binding, [3H]-pyrilamine, CHO-K1 membranes
T5 construct: expressed in transfected cells; host or cells: CHO-K1
Method: as §1, §2

[9] = molecular target: T6, human dopamine D3 receptor (Homo sapiens, UniProt P35462); experiment: Competition radioligand binding, [3H]-spiperone, CHO-K1 membranes
T6 construct: expressed in transfected cells; host or cells: CHO-K1
Method: as §1, §2

[10] = molecular target: T7, human serotonin 5-HT1A receptor (Homo sapiens, UniProt P08908); experiment: Competition radioligand binding, [3H]-8-OH-DPAT, HEK293 membranes; conditions: human cloned 5-HT1A; read-out: Ki 5-HT1A (converted)
T7 construct: expressed in transfected cells; host or cells: HEK293
T7 sequence (P08908 1-422): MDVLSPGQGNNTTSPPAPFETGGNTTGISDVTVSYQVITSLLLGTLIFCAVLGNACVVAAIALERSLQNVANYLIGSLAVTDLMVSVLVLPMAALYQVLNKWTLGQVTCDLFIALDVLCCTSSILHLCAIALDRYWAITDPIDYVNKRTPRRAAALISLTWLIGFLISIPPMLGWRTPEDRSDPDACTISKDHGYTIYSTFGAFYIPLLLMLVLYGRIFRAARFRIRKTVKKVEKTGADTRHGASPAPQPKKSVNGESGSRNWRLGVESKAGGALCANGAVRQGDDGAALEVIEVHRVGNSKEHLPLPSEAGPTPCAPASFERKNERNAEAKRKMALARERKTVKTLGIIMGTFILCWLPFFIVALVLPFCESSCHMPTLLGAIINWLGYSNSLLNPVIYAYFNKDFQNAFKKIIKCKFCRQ
Method: as §3, §1, §2

[11] = molecular target: T8, human dopamine D2 (D2S) receptor (Homo sapiens, UniProt P14416); experiment: Competition radioligand binding, [3H]-spiperone, CHO-K1 membranes; conditions: human cloned D2S; read-out: Ki D2 (converted)
T8 construct: expressed in transfected cells; host or cells: CHO-K1
Method: as §3, §1, §2

[12] = molecular target: T9, human dopamine D1 receptor (Homo sapiens, UniProt P21728); experiment: Competition radioligand binding, [3H]-SCH-23390, CHO-K1 membranes
T9 construct: expressed in transfected cells; host or cells: CHO-K1
Method: Competition radioligand binding assays were performed on membranes isolated from cell lines stable expressing the cloned human receptors, which were either in-house or commercially available. […] Assays (250 μL assay final volume) were carried out in 96-well polypropylene plates in duplicate. In short, suspension of appropriate membrane protein was incubated in assay buffer with addition of the corresponding radioligand, in the presence or absence of tested compound or reference compound. […] Then, 30 μL of liquid scintillation cocktail (UniverSol-ES, MP Biomedicals, Solon, OH) was added to each well of the filter plates and the radioactivity was measured in a MicroBeta2 microplate scintillation counter (PerkinElmer, Madrid, Spain).
as §2

human 5-HT1A receptor = molecular target: T10, human 5-HT1A receptor (Homo sapiens, UniProt P08908); experiment: Functional assay of cAMP signalling (5-HT1A agonism), HEK293 cells; format: cell-based
T10 construct: expressed in transfected cells; host or cells: HEK293
T10 sequence (P08908 1-422): T7 sequence (P08908 1-422)
Method: The activity of selected compounds at 5-HT1A receptor was investigated in cell-based functional assays of cAMP signalling in the HEK293 cell line stably expressing the cloned human 5-HT1A receptor also employed for the radioligand binding assays. […] Test compounds were added to the assay plates from 5× working dilution intermediate plates, which were prepared by means of acoustic noncontact dispensing of the compounds, keeping vehicle concentration (0.1% DMSO) constant in the assay.

Sequence of human D2S receptor (P14416 1-414 isoform P14416-2): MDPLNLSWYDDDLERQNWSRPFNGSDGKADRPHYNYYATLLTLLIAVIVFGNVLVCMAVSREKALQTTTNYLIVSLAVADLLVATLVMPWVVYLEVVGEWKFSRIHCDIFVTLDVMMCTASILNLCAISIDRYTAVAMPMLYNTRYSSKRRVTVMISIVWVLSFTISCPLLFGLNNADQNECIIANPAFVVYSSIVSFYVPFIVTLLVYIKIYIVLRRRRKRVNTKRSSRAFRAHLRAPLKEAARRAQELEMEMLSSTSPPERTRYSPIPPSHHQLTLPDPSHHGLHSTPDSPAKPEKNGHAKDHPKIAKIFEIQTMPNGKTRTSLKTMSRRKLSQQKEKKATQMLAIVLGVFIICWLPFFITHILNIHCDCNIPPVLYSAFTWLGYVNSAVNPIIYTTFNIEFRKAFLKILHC
T3 sequence (P28223 whole entry): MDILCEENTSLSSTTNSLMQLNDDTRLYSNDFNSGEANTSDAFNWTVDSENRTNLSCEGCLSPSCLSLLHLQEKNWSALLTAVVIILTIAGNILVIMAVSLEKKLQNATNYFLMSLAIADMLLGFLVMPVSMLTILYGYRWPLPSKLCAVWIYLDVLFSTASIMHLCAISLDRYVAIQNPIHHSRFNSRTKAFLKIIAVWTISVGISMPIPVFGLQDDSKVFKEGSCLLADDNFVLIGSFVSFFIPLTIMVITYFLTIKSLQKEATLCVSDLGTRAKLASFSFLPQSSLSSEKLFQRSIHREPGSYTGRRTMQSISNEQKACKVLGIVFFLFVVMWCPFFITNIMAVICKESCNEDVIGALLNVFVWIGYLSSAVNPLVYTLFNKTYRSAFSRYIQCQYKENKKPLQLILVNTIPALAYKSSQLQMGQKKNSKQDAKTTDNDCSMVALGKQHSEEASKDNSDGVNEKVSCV
T2 sequence (P28223 whole entry): as above
T1 sequence (P34969 whole entry): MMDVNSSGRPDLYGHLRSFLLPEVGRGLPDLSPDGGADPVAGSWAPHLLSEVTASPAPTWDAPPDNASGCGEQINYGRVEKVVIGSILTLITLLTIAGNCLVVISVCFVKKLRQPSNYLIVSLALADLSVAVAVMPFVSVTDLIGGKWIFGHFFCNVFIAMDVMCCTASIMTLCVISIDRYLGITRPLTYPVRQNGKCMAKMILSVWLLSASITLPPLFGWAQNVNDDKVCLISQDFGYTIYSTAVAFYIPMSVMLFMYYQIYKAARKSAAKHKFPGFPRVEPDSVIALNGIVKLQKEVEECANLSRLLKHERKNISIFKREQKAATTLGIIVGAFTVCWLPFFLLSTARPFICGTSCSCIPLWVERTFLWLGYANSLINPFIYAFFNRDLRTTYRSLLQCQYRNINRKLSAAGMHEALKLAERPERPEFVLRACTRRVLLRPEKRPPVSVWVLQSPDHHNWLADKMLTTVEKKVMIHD
T9 sequence (P21728 whole entry): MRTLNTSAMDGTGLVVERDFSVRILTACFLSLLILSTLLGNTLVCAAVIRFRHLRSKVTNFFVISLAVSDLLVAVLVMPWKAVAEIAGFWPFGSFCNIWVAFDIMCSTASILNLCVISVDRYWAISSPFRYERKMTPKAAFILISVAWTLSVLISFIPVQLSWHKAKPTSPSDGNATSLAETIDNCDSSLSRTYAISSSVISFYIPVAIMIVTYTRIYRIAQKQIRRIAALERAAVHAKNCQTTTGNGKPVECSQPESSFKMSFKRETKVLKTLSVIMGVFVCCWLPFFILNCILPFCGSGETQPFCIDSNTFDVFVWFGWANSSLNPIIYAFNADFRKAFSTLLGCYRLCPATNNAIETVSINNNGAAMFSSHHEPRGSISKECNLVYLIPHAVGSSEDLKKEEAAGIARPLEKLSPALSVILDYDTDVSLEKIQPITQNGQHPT
T5 sequence (P35367 whole entry): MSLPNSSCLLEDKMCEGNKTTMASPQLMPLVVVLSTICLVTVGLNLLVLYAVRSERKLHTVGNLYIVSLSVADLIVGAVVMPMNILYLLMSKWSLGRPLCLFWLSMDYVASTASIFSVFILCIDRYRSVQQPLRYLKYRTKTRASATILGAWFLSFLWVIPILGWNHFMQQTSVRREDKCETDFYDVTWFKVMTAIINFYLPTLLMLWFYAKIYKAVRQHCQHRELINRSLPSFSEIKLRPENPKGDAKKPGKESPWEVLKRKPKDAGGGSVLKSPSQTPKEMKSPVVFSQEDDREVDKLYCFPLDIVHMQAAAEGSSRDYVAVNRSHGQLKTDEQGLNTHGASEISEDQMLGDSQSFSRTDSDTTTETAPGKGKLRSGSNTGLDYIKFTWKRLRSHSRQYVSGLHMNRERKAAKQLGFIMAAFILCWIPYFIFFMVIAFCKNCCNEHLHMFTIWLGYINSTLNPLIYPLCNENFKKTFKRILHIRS
T6 sequence (P35462 whole entry): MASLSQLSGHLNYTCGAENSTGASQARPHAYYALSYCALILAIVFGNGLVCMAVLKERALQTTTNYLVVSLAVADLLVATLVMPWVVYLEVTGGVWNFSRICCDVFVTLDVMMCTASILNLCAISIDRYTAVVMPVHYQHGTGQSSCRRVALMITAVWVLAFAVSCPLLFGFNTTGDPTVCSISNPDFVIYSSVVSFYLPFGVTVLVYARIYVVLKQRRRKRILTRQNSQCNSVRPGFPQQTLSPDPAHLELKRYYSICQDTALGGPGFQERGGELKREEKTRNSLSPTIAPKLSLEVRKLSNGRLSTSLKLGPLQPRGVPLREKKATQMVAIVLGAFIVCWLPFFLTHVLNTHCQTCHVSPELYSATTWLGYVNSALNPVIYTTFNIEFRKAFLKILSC
T8 sequence (P14416 1-414 isoform P14416-2): as the sequence (P14416 1-414 isoform P14416-2) above

O=C(NCCCN1CCN(c2ccccc2)CC1)c1n[nH]c2ccccc12 [Compound 1, N-(3-(4-phenylpiperazin-1-yl)propyl)-1H-indazole-3-carboxamide]
Spontaneous locomotor activity (mice [1]; 10 mg/kg i.p.): did not impair animals’ mobility
Spontaneous locomotor activity (mice [1]; 20 mg/kg i.p., p < 0.05): statistically significant decrease in the locomotor activity
Spontaneous locomotor activity (mice [1]; 40 mg/kg i.p., p < 0.05): statistically significant decrease in the locomotor activity
Ki (human 5-HT7 receptor): 540 nM
Kb (human D2S receptor): 22.5 nM
inhibition at 1 µM (human D2S receptor; CHO-K1, read-out: % of inhibition of 1 µM dopamine response): 48.5 ± 4.9%
inhibition at 10 µM (human D2S receptor; CHO-K1, read-out: D2 antagonism %inh. of DA response): 50.3 ± 6.3%
Effect on PA performance (memory acquisition) (mice [2]): no statistically significant effect on PA performance
Motor coordination (rota-rod) (mice [3]): lack of statistically significant difference
Ki ([4]; human cloned 5-HT2A): 35.6 nM
pKi 5-HT2A/pKi D2 ([4]; ratio of pKi values): 1.04
inhibition at 10 µM (human 5-HT2A receptor; CHO-K1, read-out: 5-HT2A antagonism %inh. of 5-HT response): 99.1 ± 2.5%
Kb (human 5-HT2A receptor; read-out: 5-HT2A antagonism (IP signalling) Kb): 80.2 ± 20.1 nM
Effect on amphetamine-induced hyperactivity (mice [5]): significantly reduced hyperactivity induced by amphetamine
inhibition at 10 µM [6]: 21 ± 6%
Effect on anxiety in EPM test (mice [7]): anxiolytic effect
Percentage of open arm entries (EPM) (mice [7]; vs. control): increase
Percentage of open arm time (EPM) (mice [7]; vs. control): increase
Ki [8]: 474 nM
Ki [9]: 711 nM
Ki [10]: 155 nM
Ki [11]: 69 nM
Ki [12]: 241 nM
EC50 (human 5-HT1A receptor): 324 ± 69 nM
inhibition at 10 µM (human 5-HT1A receptor; HEK293, 10 µM compound, 1 µM forskolin, read-out: 5-HT1A agonism %inh. of FSK response): 85.1 ± 3.3%
